Measurements taken from ChEMBL document CHEMBL5634155, “Design and synthesis of pyrazole derivatives against neutrophilic inflammation” (Eur J Med Chem, 2023).
pIC50: −log10 of the molar value.

Experiments:
[1] = tested on: Neutrophil; experiment: Inhibition of fMLF/CB-induced human Neutrophil activation assessed as reduction in superoxide anion generation preincubated with compound for 2 mins prior to CB induction for 3 mins followed by fMLF addition by spectrophotometric analysis; type: functional, cell-based
[2] = tested on: Neutrophil; experiment: Inhibition of fMLF/CB-induced human Neutrophil activation assessed as reduction in superoxide anion generation at 10 uM preincubated with compound for 2 mins prior to CB induction for 3 mins followed by fMLF addition by spectrophotometric analysis relative to control; type: functional; details: 5 min
[3] = tested on: Neutrophil; experiment: Inhibition of fMLF/CB-induced human Neutrophil activation assessed as reduction in elastase release using MeO-Suc-Ala-Ala-Pro-Val-pnitroanilide as substrate incubated for 5 mins; type: functional, cell-based
[4] = tested on: Neutrophil; experiment: Inhibition of fMLF/CB-induced human Neutrophil activation assessed as reduction in elastase release at 10 uM using MeO-Suc-Ala-Ala-Pro-Val-pnitroanilide as substrate incubated for 5 mins relative to control; type: functional

Row | Structure (SMILES) | pIC50 [1] | inhibition at 10 µM [2] | pIC50 [3] | inhibition at 10 µM [4]
1 | Brc1ccccc1Cn1nc(-c2ccco2)c2ccccc21 | 5.83 | 93.1% | 5.32 | 78%
2 | c1ccc(Cn2cc(-c3ccccc3)c(-c3ccco3)n2)cc1 | – | 94.2% | < 5.00 | 101%
3 | O=Cc1ccc(-c2nn(Cc3ccccc3)c3ccccc23)o1 | 6.00 | 75.2% | 5.43 | 89.7%
4 | CCCCCCCn1cc(-c2ccccc2)c(-c2cccs2)n1 | < 5.00 | -5.72% | < 5.00 | 21%
5 | CCCCCCCn1cc(-c2ccccc2)c(-c2ccccc2)n1 | < 5.00 | 0.72% | < 5.00 | 16.9%
6 | COc1ccccc1C(=O)n1nc(-c2ccco2)c2ccccc21 | < 5.00 | 14.5% | < 5.00 | -0.2%
7 | c1ccc(Cn2nc(-c3ccco3)c3ccccc32)cc1 | 5.63 | 71.8% | < 5.00 | 20.4%
8 | COc1cccc(Cn2cc(-c3ccccc3)c(-c3ccccc3)n2)c1 | 3.78 | 68.6% | < 5.00 | 25%
9 | Fc1cccc(Cn2nc(-c3ccccc3)cc2-c2ccccc2)c1 | < 5.00 | 48.3% | < 5.00 | 17.6%
10 | CCCCCCCn1nc(-c2cccs2)cc1-c1ccccc1 | < 5.00 | 16.6% | < 5.00 | 21.1%
11 | O=Cc1ccc(-c2cc(-c3ccccc3)n(Cc3ccccc3)n2)o1 | 5.81 | 80.8% | 5.74 | 96.1%
12 | O=C(O)c1ccc(-c2nn(CC3CCCCC3)c3ccccc23)o1 | 5.31 | 73.2% | < 5.00 | 43.6%
13 | COc1cccc(Cn2nc(-c3cccs3)cc2-c2ccccc2)c1 | 5.76 | 63.3% | < 5.00 | 32.8%
14 | Fc1ccccc1Cn1nc(-c2ccccc2)cc1-c1ccccc1 | 5.33 | 61.8% | < 5.00 | 35%
15 | Fc1cccc(Cn2cc(-c3ccccc3)c(-c3cccs3)n2)c1 | 5.75 | 63.7% | < 5.00 | 33.6%
16 | c1ccc(-c2cc(-c3ccccc3)n(CC3CCCCC3)n2)cc1 | < 5.00 | 40.8% | < 5.00 | 8.16%
17 | O=Cc1ccc(-c2nn(C(=O)c3ccccc3)c3ccccc23)o1 | < 5.00 | 10.1% | < 5.00 | 18.1%
18 | OC(c1ccc(-c2nn(Cc3ccccc3F)c3ccccc23)o1)C(F)(F)F (stereo unspecified) | < 5.00 | 35.7% | < 5.00 | 10.3%
19 | CCCCCCCn1nc(-c2ccc(C(=O)O)o2)c2ccccc21 | 5.69 | 98.7% | 5.72 | 112%
20 | CCC(=O)c1ccc(-c2nn(Cc3ccccc3F)c3ccccc23)o1 | 6.74 | 106% | 5.60 | 93.4%
21 | Fc1ccccc1Cn1nc(-c2ccco2)c2ccccc21 | 5.98 | 100% | 5.68 | 94.5%
22 | CCCCCCCn1nc(-c2ccco2)cc1-c1ccccc1 | 6.16 | 101% | 5.67 | 115%

Row | Structure (SMILES) | pIC50 [1] | inhibition at 10 µM [2] | pIC50 [3] | inhibition at 10 µM [4]
23 | c1ccc(-c2cn(CC3CCCCC3)nc2-c2ccccc2)cc1 | < 5.00 | 6.73% | < 5.00 | 8.93%
24 | O=[N+]([O-])c1cccc2c(-c3ccc(CO)o3)nn(Cc3ccccc3)c12 | 5.74 | 82.6% | 5.12 | 68.3%
25 | c1ccc(Cn2cc(-c3ccccc3)c(-c3cccs3)n2)cc1 | 3.84 | 65.7% | < 5.00 | 23.5%
26 | CCCCCCCn1nc(-c2ccco2)c2ccccc21 | < 5.00 | 8.38% | < 5.00 | 44.2%
27 | c1ccc(Cn2nc(-c3ccco3)cc2-c2ccccc2)cc1 | 7.12 | 73% | < 5.00 | 46%
28 | c1ccc(Cn2nc(-c3ccccc3)cc2-c2ccccc2)cc1 | 5.55 | 63.6% | < 5.00 | 36.8%
29 | O=Cc1ccc(-c2nn(CC3CCCCC3)c3ccccc23)o1 | 6.77 | 63.4% | 5.93 | 102%
30 | c1ccc(-c2cc(-c3ccco3)nn2CC2CCCCC2)cc1 | 6.70 | 99.3% | 5.62 | 109%
31 | COc1cccc(Cn2nc(-c3ccccc3)cc2-c2ccccc2)c1 | < 5.00 | 8.5% | < 5.00 | 1.65%
32 | O=C(O)c1ccc(-c2nn(Cc3ccccc3)c3ccccc23)o1 | < 5.00 | 43.4% | < 5.00 | 16.8%
33 | CCCCCCCn1nc(-c2ccc(C=O)o2)c2ccccc21 | < 5.00 | 5.88% | 5.59 | 67.1%
34 | c1ccc(Cn2nc(-c3cccs3)cc2-c2ccccc2)cc1 | 7.13 | 70% | < 5.00 | 39.1%
35 | O=C(c1ccccc1F)n1nc(-c2ccco2)c2ccccc21 | 6.47 | 69.5% | < 5.00 | -9.57%
36 | COc1ccccc1C(=O)n1nc(-c2ccc(C=O)o2)c2ccccc21 | < 5.00 | 10.4% | < 5.00 | 31.8%
37 | COc1ccc(-c2nn(CC3CCCCC3)cc2-c2ccccc2)cc1OC | < 5.00 | 43.9% | < 5.00 | 19.1%
38 | c1ccc(-c2cn(CC3CCCCC3)nc2-c2ccco2)cc1 | 3.08 | 104% | 5.92 | 109%
39 | c1ccc(Cn2cc(-c3ccccc3)c(-c3ccccc3)n2)cc1 | 3.70 | 61.6% | < 5.00 | 6.79%
40 | c1coc(-c2nn(CC3CCCCC3)c3ccccc23)c1 | 6.74 | 87.8% | 6.59 | 73.9%
41 | Fc1cccc(Cn2nc(-c3cccs3)cc2-c2ccccc2)c1 | 7.12 | 73.3% | < 5.00 | 35.5%
42 | O=C(c1ccccc1)n1nc(-c2ccco2)c2ccccc21 | 6.77 | 59.7% | – | –
43 | CCCCCCCn1cc(-c2ccccc2)c(-c2ccco2)n1 | – | 102% | 5.96 | 110%
44 | Fc1cccc(Cn2cc(-c3ccccc3)c(-c3ccco3)n2)c1 | – | 90.2% | 5.69 | 100%
